Data set [1] relates to E. faecalis OG1RF and Δeep biofilms. The experiment in a line: Biofilm biomass quantified by safranin staining, OD450 nm, 96-well polystyrene plates. The format is cell-based, Enterococcus faecalis. As for the experimental part: Biofilms of the two strains were grown overnight in tryptic soy broth without added glucose in the wells of 96-well polystyrene plates at 37° C. The liquid cultures were removed from the plate, and the material remaining in the wells (i.e., the biomass) was washed five times with sterile water.
Both OG1RF and Δeep were streaked on Brain Heart Infusion (BHI) agar plates and incubated at room temperature for two days. Three colonies from each strain were inoculated in BHI broth and incubated overnight at 37° C. 96-well microtiter plate biofilm assays were performed using the overnight cultures diluted in Tryptic Soy Broth (TSB). Biofilm plates were incubated overnight at 37° C. in a moist environment. The microtiter plate was washed with sterile water. […] After incubation, the microtiter plate was washed again with sterile water and left to dry until water was absent in the wells. The plate was stained with safranin, washed again with sterile water, and then read on a plate reader to determine the amount of biofilm in the wells.

For data set [2] the test system is unchanged. The experiment in a line: Viable cells (CFU) recovered from biofilm biomass after treatment. The following applies: for decrease in viable biofilm cells: three-hour exposure. As for the experimental part:
(§1) Cells were scraped up from the wells of the 96-well plate following the post-treatment washing step, as described above. The scraped up cells were serially diluted and plated to assess the number of colony forming units (CFU) recovered per ml (CFU/ml).
The bacteria were then diluted (10^0-10^−7), and plated on Brain Heart Infusion (BHI) plates. The plates were incubated overnight at 37° C.
These solutions were diluted by serial 10-fold dilutions, and then aliquots of each dilution were plated on BHI agar plates to enumerate the number of viable bacteria present in each solution. In addition, the biofilms in the plate were washed, and then two wells of OG1RF biofilms and two wells of Δeep biofilms were removed by scraping manually with a pipette tip and resuspended in potassium phosphate buffered saline. These dislodged biofilm cell solutions were also diluted by serial 10-fold dilutions, and then aliquots of each dilution were plated on BHI agar plates to enumerate the viable bacteria present in each sample. Finally, the remainder of the biofilm wells were allowed to dry for several hours, and then the biomass in each well was stained with safranin. Excess safranin was washed away, and the plates were dried again. Biofilm biomass was quantified by reading the optical density of safranin-stained wells at OD450 nm.

The test system of data set [3] is E. faecalis OG1RF biofilms. Particulars: cited from earlier work.
The subject of the next data set is E. faecalis OG1RF. Particulars: cited from earlier work.
Data set [4] has as its system E. faecalis OG1RF and Δeep biofilms. The data set can be described thus: Viable cells in the treatment solution (supernatant) removed from biofilms, dispersal check. The following applies: 5 mg/ml hen egg white lysozyme, 3 h, 37° C., either strain. It is filed as cell-based, Enterococcus faecalis. The protocol:
To conduct this experiment, the number of viable cells that were present in the buffer or lysozyme solution that was removed from the biofilms following exposure was measured. If viable cells were dispersed from the biofilm following treatment, then one should be able to enumerate viable cells in the lysozyme solution removed from the treated wells.
In this experiment, biofilms of E. faecalis OG1RF and Δeep were grown in 96-well microtiter plates overnight. The biofilms were washed to remove non-adherent cells.

Data set [5] deals with planktonic E. faecalis OG1RF and Δeep cells. The data set can be described thus: Viability of planktonic logarithmic and stationary phase cells exposed to lysozyme. The format is cell-based, Enterococcus faecalis. Particulars: 2.5 mg/ml lysozyme, 6 hours. As for the experimental part:
Early logarithmic cultures were prepared by diluting overnight cultures 1:100 in BHI broth. To obtain stationary phase cells, BHI broth was inoculated with 3 individual colonies and cultivated for about 18 hours. […] Cultures to which sterile water was added served as controls. Cultures were incubated at 37° C. for 6 hours.

The subject of data set [6] is E. faecalis strains DS16, FA2-2, JH2-2, VA1128, V583 and 39-5 biofilms. The data set can be described thus: Biofilm biomass by safranin staining, laboratory strains and clinical isolates. Particulars: strains DS16, VA1128 and V583, methods of Example 1. The format is cell-based, Enterococcus faecalis. The protocol: Biofilms of the two strains were grown overnight in tryptic soy broth without added glucose in the wells of 96-well polystyrene plates at 37° C. The liquid cultures were removed from the plate, and the material remaining in the wells (i.e., the biomass) was washed five times with sterile water. […] Following incubation, the lysozyme or buffer solutions were removed, and the wells were washed again as above.
E. faecalis strains DS16, FA2-2, JH2-2, and 39-5 are strains that have been used for laboratory experiments for many years, and E. faecalis strain V583 is a vancomycin-resistant strain that has become the prototype lab strain for studies of vancomycin-resistant E. faecalis. E. faecalis strain VA1128 is a clinical isolate.

For data set [7] the test system is unchanged. The experiment in a line: Viable cells (CFU) recovered from biofilms, laboratory strains and clinical isolates. The format is cell-based, Enterococcus faecalis. The following applies: all tested strains, methods of Example 1.
Source text: as §1

Setting [8] is: 128 μg/ml ampicillin in water, 3 h, OG1RF and Δeep.

Entries after “also recorded” stand apart in the source; their conditions may differ.

As for `CC1(C)S[C@@H]2[C@H](NC(=O)[C@H](N)c3ccccc3)C(=O)N2[C@H]1C(=O)O` [ampicillin, reference compound], the “change in biofilm biomass” value in data set [1] (setting [8]) was “no changes; also recorded: resistant to any effect”. In addition, the “change in biofilm cell viability” value in data set [2] (setting [8]) is listed as “no changes; also recorded: resistant to any effect”. The “ampicillin concentration to which biofilms are resistant” value in data set [3] was above 128 µg/mL. In the data set on E. faecalis OG1RF, the “susceptibility in planktonic conditions” value was “susceptible”.

Take “Human lysozyme: purified, recombinant human lysozyme available for purchase”: the “increase in stained biomass” value in data set [1] (recombinant human lysozyme versus buffer) is recorded as “approximately 3.5 fold”. In data set [2] (OG1RF and Δeep, recombinant human lysozyme), the “decrease in viable cells” value is above 99.9%. Besides, the “reduction of viable cells recovered from biofilms” value in data set [2] (OG1RF, recombinant human lysozyme) was 3.2 log 10 CFU/ml; in data set [2] (Δeep, recombinant human lysozyme) it was 4.0 log 10 CFU/ml.

As to “lysozyme: hen egg white lysozyme (EC 3.2.1.17), enzyme that hydrolyzes beta-1,4-linkages of bacterial cell wall peptidoglycan”, the “increase in stained biomass among 0.156, 1.25 and 5 mg/ml” value in data set [1] (1.25 mg/ml lysozyme) is given as “largest increase”. In addition, the “biofilm biomass (safranin staining) versus buffer” value in data set [1] (5 mg/ml hen egg white lysozyme, 3 h, 37° C., OG1RF and Δeep) is on record as “increased biofilm biomass of equal magnitude for both strains; also recorded: increased equally for both strains; also recorded: greater than the staining in untreated wells”. Also, in data set [1] (5 mg/ml lysozyme, 37° C.), the “stained biomass at 6 hours compared to 3 hours” value is reported as “increased slightly”. Further, the “viable cells recovered from biofilm at 6 and 24 hours compared to 3 hours” value in data set [2] (5 mg/ml lysozyme, 37° C.) is recorded as “dropped slightly”. Moreover, the “drop in viable cells recovered from biofilm” value in data set [2] (OG1RF, 5 mg/ml lysozyme, 3 h, difference in means of 3 biological replicates) is listed as 2.8 log 10 CFU/ml. For the same compound, the “decrease in viable biofilm cells” value is on record as 99.8% in data set [2] (OG1RF, 5 mg/ml lysozyme) and 99.9% in data set [2] (Δeep, 5 mg/ml lysozyme). In data set [2] (lysozyme-treated OG1RF and Δeep biofilms), the “viability of biofilm cells versus untreated or buffer (in words)” value is listed as “fewer living cells than the untreated strains; also recorded: displayed killing; also recorded: decreased the number of viable biofilm cells”. Moreover, the “viable cells in lysozyme supernatant” value in data set [4] was “no viable cells above the limit of detection”. The “decrease in viable cells” value in data set [5] (OG1RF and Δeep, stationary phase) is “about 1.5 log 10 CFU/ml”; in data set [5] (OG1RF, logarithmic growth), “no decrease”. Also, in data set [6], the “biofilm biomass after treatment” value is “increased, to some extent”. Moreover, the “viable cells recovered from biofilms” value in data set [7] is listed as “reduced the number of viable cells”.

These data come from US20200215169A1, “ANTIBACTERIAL METHODS AND RELATED KITS” (THE HENRY M. JACKSON FOUNDATION FOR THE ADVANCEMENT OF …, priority 2017, published 2020).
